Data taken from patent US11053242B2, “[9,10-dimethoxy-3-(2-methylpropyl)-1H,2H,3H,4H,6H,7H,11BH-pyrido-[2,1-a]isoquinolin-2-yl]methanol and compounds, compositions and methods relating thereto” (Neurocrine Biosciences, Inc., priority 2015, dated 2021).

Tests used:
[1] = biological target: VMAT2 (rat forebrain homogenate) (Rattus norvegicus (Rat), UniProt Q01827); settings: radioligand of the VMAT2 binding assay; cited from earlier work
[2] = Metabolic pathways in human hepatocytes (fraction metabolized); assay type: in vitro ADME; settings: LC-MS/MS of metabolites
Description: To investigate differences in the metabolism of Compound 1-1 and R,R,R-DHTBZ in vitro both compounds were incubated with human hepatocytes and the amounts of metabolites formed via the respective demethylation, oxidation, and glucuronidation pathways were determined by LC-MS/MS. The instrument responses for all metabolites were assumed to be approximately equal. For both compounds the percentage of overall in vitro metabolism due to the respective pathways (fraction metabolized, fm) was calculated by dividing the LC/MS peak area of the metabolite(s) formed via a given pathway by the sum of the peak areas of all metabolites monitored. […] This demethylation is believed to be catalyzed by CYP2D6.

[3] = tested on: vesicular monoamine transporter-2 (VMAT2); settings: inhibition of catecholamine uptake by VMAT2, Scherman et al. 1983; cited from earlier work
[4] = In vitro human intestinal S9 hydrolysis assay (formation of compound 1-1); settings: human intestinal S9, 1 uM, 37° C., up to 60 minutes
[5] = biological target: VMAT2 (human platelet homogenate) (Homo sapiens (Human), UniProt Q05940); assay: Human VMAT2 Ki, slightly modified competition binding procedure (Table 11); settings: 10 nM 3H-dihydrotetrabenazine;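 also: competition binding with 90 min incubation at 25 °C, after which filter-retained radioligand was measured by scintillation counting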
Chain of VMAT2 (human platelet homogenate) (Q05940 whole entry): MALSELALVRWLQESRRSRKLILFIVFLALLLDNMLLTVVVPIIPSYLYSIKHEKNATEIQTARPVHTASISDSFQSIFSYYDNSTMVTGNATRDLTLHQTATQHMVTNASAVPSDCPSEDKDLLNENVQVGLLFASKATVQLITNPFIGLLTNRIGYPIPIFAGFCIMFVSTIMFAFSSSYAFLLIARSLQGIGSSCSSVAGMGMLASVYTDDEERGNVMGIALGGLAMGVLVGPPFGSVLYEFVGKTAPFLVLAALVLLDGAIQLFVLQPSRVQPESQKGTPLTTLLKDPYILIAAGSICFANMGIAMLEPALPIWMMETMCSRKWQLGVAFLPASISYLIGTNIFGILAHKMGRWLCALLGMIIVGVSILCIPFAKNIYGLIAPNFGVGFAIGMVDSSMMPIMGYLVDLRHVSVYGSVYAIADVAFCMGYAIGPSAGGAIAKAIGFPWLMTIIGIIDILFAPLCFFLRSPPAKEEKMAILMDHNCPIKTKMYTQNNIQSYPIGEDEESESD

Chain of VMAT2 (rat forebrain homogenate) (Q01827 whole entry): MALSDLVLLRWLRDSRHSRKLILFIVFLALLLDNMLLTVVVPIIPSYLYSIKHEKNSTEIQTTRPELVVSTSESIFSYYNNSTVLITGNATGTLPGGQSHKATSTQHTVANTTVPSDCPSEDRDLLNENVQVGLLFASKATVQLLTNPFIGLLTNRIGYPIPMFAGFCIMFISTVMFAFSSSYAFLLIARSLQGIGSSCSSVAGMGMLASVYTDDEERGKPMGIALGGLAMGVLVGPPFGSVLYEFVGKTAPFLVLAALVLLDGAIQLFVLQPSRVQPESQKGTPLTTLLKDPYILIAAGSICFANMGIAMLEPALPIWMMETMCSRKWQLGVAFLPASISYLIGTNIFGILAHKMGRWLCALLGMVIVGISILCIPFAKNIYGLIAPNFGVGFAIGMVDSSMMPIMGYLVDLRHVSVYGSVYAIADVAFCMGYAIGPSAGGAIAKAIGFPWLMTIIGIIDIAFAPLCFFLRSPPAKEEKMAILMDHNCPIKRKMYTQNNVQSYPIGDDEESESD

| Compound | primary metabolic pathway [2] | S9 Assay (ability to form compound 1-1) [4] | Ki [5] | also measured |
| --- | --- | --- | --- | --- |
| ^3H-dihydrotetrabenezine |  |  |  | Kd [1]: 2.6 nM |
| COc1cc2c(cc1OC)[C@H]1C[C@@H](COC(=O)C[C@H]3CCNC3)[C@H](CC(C)C)CN1CC2 [Compound 4-38, [(2R,3S,11bR)-9,10-dimethoxy-3-(2-methylpropyl)-1H,2H,3H,4H,6H,7H,11bH-pyrido[2,1-a]isoquinolin-2-yl]methyl 2-[(3R)-pyrrolidin-3-yl]acetate] |  | + | < 10 nM |  |
| COc1cc2c(cc1OC)[C@H]1C[C@@H](COC(=O)NCC(C)C(=O)O)[C@H](CC(C)C)CN1CC2 (stereo partly drawn) [Compound 5-57, 3-[({[(2R,3S,11bR)-9,10-dimethoxy-3-(2-methylpropyl)-1H,2H,3H,4H,6H,7H,11bH-pyrido[2,1-a]isoquinolin-2-yl]methoxy}carbonyl)amino]-2-methyIpropanoic acid] |  | + | > 500 nM |  |

Now from value to compound, other results behind:

| primary metabolic pathway [2] | S9 Assay (ability to form compound 1-1) [4] | Ki [5] | Compound | also measured |
| --- | --- | --- | --- | --- |
| primarily metabolized by glucuronidation |  |  | COc1cc2c(cc1OC)[C@H]1C[C@@H](CO)[C@H](CC(C)C)CN1CC2 [Compound 1-1, [(2R,3S,11bR)-9,10-Dimethoxy-3-(2-methylpropyl)-1H,2H,3H,4H,6H,7H,11bH-pyrido[2,1-a]isoquinolin-2-yl]methanol] |  |
| primarily metabolized by demethylation |  |  | COc1cc2c(cc1OC)C1CC(O)C(CC(C)C)CN1CC2 [R,R,R-DHTBZ, 3-isobutyl-9,10-dimethoxy-1,3,4,6,7,11b-hexahydro-2H-pyrido[2,1-a]isoquinolin-2-ol, reference compound] |  |
